This note sets out measurements from patent US6407237B1, “Crystal forms of 9-substituted hypoxanthine derivatives” (NeoTherapeutics, Inc., priority 2000, dated 2002).

Series [1] can be described thus: Hydration and dehydration (interconversion) studies of crystal structures, checked by X-ray powder pattern. Type of series: physicochemical. As to conditions: for crystal structure after incubation in humid chamber (H2O vapor) at 25° C. / crystal structure after incubation in humid chamber (H2O vapor) at 70° C.: 48 h. Here is the method:
X-ray powder patterns were measured with a β-Generator Philips PW 1120/90 equipped with a CuKα Guinier-de Wolff Camera No. 11 (Enraf-Nonius).
Starting from different crystal structures, hydration and dehydration studies were performed (FIG. 1, Table 2). The crystal structure designated Type I (lot NTA-107-B) is obtained by equilibration of Type II (lot NTA-107-A) with water vapor in a humid chamber, whereas Type III was generated by dehydration of Type I in a vacuum drying oven at elevated temperature (Tables 1 and 2). The X-ray powder patterns of the Type I and II crystal structures are not sensitive to small changes in the water content and appear uniform from batch to batch.
The well-resolved powder diagrams of these two forms indicate well ordered crystal lattice structures (FIG. 3). […] The manufacturing process leads to a water-soluble (5% w/v) crystalline product of the monopotassium salt of N-4-carboxyphenyl-3-(6-oxohydropurin-9-yl) propanamide monohydrate Type I (active pharmaceutical ingredient). N-4-carboxyphenyl-3-(6-oxohydropurin-9-yl) propanamide monopotassium salt exists, as known so far, in three different crystal structures (Types I-III) depending upon the water content.

The format of series [2] is physicochemical. The source says: The occurrence of polymorphic forms can be examined by various physico-chemical investigation techniques. The solubility measured under defined conditions can provide information regarding the occurrence of different crystal structures. However, the preferred technique for the investigation of the polymorphism of N-4-carboxyphenyl-3-(6-oxohydropurin-9-yl) propanamide monopotassium salt is the analysis of the X-ray diffraction powder diagrams, which allows the distinct crystal structures to be clearly distinguished by their characteristic powder patterns. The powder pattern, position, intensity and sharpness of the bands are dependent upon the crystal structure and the fine arrangement of the atoms in the crystal lattice, which in turn are both influenced by the content of crystal water. For this study, material from different batches of N-4-carboxyphenyl-3-(6-oxohydropurin-9-yl) propanamide monopotassium salt was used, either in the original or in a dry or wet state (Table 1).
In aqueous solutions prepared with material which was synthesized by the route designated “direct crystallization” a fine microcrystalline precipitate of the N-4-carboxyphenyl-3-(6-oxohydropurin-9-yl) propanamide free acid was formed after 2-3 min. Although the assay of K is 1.0 equivalent and although direct crystallized K-salt is isolated at equal or slightly higher pH (H 8.7) than K-salt synthesized from N-4-carboxyphenyl-3-(6-oxohydropurin-9-yl) propanamide free acid (pH 8.5), only the latter is completely soluble in water. […] The free acid precipitates and generates the di-K salt until its concentration is high enough to keep the precipitation and dissolution of the free acid at equilibrium. The solubility of N-4-carboxyphenyl-3-(6-oxohydropurin-9-yl) propanamide Type II (lot Am 960/a) in aqueous solution was measured as a function of temperature (FIG. 2). In the solubility curve a plateau is reached at 70° C. (17% w/w).

The nature of series [3]: Hygroscopicity of the crystal structure. Type of series: physicochemical.

“Also recorded” adds a separate entry of the source.

For the molecule `O=C(CCn1cnc2c(=O)[nH]cnc21)Nc1ccc(C(=O)[O-])cc1.[K+]` [Type III, N-4-carboxyphenyl-3-(6-oxohydropurin-9-yl) propanamide monopotassium salt], in series [1] (monopotassium salt), the “crystal structure after incubation in humid chamber (H2O vapor) at 25° C.” value (from here on “crystal structure after incubation … at 25° C.”) was “turns completely into Type I”.

`O=C(CCn1cnc2c(=O)[nH]cnc21)Nc1ccc(C(=O)[O-])cc1.[K+]` [Type II, N-4-carboxyphenyl-3-(6-oxohydropurin-9-yl) propanamide monopotassium salt]: in series [2], the “solubility in aqueous solution as a function of temperature, plateau of solubility curve” value came out at 17 % w/w and the solubility in water entry is “about 10 % (w/v)”. Moreover, in series [1] (monopotassium salt), the “crystal structure after incubation … at 25° C.” value is recorded as “Type II” and the “crystal structure after incubation in humid chamber (H2O vapor) at 70° C.” value is on record as “interconversion of Type II into Type I crystal structure”.

Regarding `O.O=C(CCn1cnc2c(=O)[nH]cnc21)Nc1ccc(C(=O)[O-])cc1.[K+]` [Type I, N-4-carboxyphenyl-3-(6-oxohydropurin-9-yl) propanamide monopotassium salt monohydrate], the hygroscopicity entry in series [3] was “only slightly hygroscopic”. For the same molecule, in series [1] (monopotassium salt monohydrate), the “crystal structure after incubation … at 25° C.” value is “stable; also recorded: remains unchanged; also recorded: Type I” and the “crystal structure after incubation in humid chamber (H2O vapor) at 70° C.” value was “stable; also recorded: remains unchanged; also recorded: Type I”. For the same molecule, the “crystal structure after strong drying in vacuum oven” value in series [1] (140° C., 5 mbar, monopotassium salt monohydrate) is recorded as “Type III was obtained”.

As to `O=C(CCn1cnc2c(=O)[nH]cnc21)Nc1ccc(C(=O)O)cc1` [free acid, N-4-carboxyphenyl-3-(6-oxohydropurin-9-yl) propanamide], in series [2], the “solubility of the free acid in water” value was “extreme low solubility”.
